Ends that are not written are not given here.
Columns and labels:
[1] = tested on: MB49 bladder carcinoma cell line; experiment: Peptide uptake by MB49 bladder carcinoma cells; format: cell-based, murine
Method: An MB49 bladder carcinoma cell line was maintained in full Dulbecco's modified Eagle's medium (DMEM) with antibiotics and L-glutamine. Cells were seeded on 24 well plates for at least 24 hours to allow the cells to grow to confluence; each sample was done in triplicate. Samples were then incubated with one of free CGKRK (SEQ ID NO:1) and KAREC (SEQ ID NO:2), micelles of these two peptides, fluorescence TAT peptide (positive control), and PBS (negative control). After the incubation, all wells were washed with PBS three times to remove any free fluorescence molecules. Cells were detached from the wells with trypsin at 37° C. for 5 minutes. 0.3% Triton X-100 in PBS was added to the cells, and after 30 minutes of incubation, the solutions were centrifugated in an Eppendorf microcentrifuge at 15,000 rpm. The fluorescence intensity of the supernatant was measured using a fluorescence plate reader. For confocal imaging, cells were grown on glass chamber slides. Following the incubation experiment, cells were imaged with a Nikon MR Confocal STORM super-resolution microscope.

[2] = Peptide binding to heparin-coated wells; conditions: FIG. 5B
Method: (§1) The peptides CGKRK (SEQ ID NO:1) and KAREC (SEQ ID NO:2) were diluted two-fold in PBS at different concentrations and added to collagen- and heparin-coated wells preblocked with 5% bovine serum albumin. The plates were incubated at room temperature for 1 hour, washed 4 times with 200 μL PBS, and scanned at […] of 485 and 515 nm using a SpectraMax M5 fluorescence plate reader. The PBS background was subtracted from the data points, and the data were plotted with Prism.

collagen type I = collagen type I (Homo sapiens, UniProt P02452+P08123); experiment: Peptide binding to collagen-coated wells; conditions: FIG. 5C
Sequence of collagen type I (P02452 162-1218 limits assumed): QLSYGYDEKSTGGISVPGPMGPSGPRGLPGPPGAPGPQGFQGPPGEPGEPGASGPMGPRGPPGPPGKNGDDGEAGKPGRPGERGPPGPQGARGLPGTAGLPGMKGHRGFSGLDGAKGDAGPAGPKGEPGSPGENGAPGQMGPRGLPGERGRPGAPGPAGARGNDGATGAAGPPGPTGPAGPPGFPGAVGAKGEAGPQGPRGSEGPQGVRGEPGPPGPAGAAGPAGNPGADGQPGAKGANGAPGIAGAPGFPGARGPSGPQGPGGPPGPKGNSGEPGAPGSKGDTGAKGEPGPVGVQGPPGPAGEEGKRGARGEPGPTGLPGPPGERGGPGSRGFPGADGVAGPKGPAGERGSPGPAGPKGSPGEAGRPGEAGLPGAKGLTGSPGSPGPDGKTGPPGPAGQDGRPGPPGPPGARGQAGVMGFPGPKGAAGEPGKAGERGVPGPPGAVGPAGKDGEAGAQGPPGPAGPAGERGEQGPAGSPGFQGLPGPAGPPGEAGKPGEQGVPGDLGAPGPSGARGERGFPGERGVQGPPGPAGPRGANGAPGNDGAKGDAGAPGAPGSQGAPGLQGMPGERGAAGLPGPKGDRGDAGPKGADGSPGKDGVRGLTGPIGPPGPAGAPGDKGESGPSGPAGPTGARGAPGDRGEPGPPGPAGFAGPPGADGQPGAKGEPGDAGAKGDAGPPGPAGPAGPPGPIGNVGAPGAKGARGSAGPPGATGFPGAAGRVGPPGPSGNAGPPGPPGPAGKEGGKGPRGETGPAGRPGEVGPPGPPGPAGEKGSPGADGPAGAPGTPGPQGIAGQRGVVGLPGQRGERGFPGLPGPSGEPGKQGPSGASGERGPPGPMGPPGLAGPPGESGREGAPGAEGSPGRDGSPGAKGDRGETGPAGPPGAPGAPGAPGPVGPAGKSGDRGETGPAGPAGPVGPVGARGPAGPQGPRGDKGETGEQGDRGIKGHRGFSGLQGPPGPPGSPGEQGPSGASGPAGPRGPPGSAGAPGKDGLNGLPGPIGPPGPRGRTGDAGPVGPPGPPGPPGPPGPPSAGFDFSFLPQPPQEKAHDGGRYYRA
Sequence of collagen type I (P08123 80-1119 limits assumed): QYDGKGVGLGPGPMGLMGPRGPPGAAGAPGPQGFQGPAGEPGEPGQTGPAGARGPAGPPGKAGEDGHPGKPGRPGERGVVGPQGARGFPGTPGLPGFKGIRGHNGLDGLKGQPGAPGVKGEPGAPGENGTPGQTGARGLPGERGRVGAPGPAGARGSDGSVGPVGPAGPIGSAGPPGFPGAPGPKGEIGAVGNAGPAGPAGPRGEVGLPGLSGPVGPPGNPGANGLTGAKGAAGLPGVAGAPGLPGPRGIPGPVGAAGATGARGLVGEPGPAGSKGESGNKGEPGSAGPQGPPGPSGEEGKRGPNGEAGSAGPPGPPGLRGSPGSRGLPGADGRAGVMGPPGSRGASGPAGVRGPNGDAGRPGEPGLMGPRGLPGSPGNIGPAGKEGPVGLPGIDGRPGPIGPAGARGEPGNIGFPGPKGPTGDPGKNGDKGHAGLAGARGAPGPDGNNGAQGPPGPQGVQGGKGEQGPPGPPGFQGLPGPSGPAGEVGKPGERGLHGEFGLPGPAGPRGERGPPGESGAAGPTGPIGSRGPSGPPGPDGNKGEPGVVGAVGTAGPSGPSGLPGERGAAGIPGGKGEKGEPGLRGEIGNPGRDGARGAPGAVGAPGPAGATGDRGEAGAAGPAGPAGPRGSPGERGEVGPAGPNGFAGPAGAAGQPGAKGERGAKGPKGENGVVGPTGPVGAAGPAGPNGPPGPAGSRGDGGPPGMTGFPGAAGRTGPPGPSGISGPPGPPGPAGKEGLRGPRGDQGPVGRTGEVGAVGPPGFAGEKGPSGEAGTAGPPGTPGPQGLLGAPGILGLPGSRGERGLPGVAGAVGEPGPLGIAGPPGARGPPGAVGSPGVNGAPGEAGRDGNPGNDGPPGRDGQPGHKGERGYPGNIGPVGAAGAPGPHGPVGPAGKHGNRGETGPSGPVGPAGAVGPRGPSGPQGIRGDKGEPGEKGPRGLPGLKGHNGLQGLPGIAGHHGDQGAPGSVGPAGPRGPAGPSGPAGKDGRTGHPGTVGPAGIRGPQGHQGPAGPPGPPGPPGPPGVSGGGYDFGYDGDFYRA
Method: as §1

bladder urothelium = experiment: Intravesical peptide binding to the mouse bladder with or without injury (in situ imaging, histology); format: in vivo, mice; conditions: for Binding in the bladder, in situ images: 15 minutes incubation; for Histological analysis of binding, entire bladder: 2× magnification
Method: Eight-to twelve-week-old female mice were anesthetized with isoflurane using a vaporizer machine at a flow rate of 1-3 L/min. The mice were placed on their backs and their urethra openings were pulled forward while squeezing the bladder to express urine. A lubricated 24 G Angiocath catheter with no needle was inserted via the urethra into the bladder cavity to wash the bladder once with […] PBS. To imitate a bladder injury subsequent to bladder cancer surgery, in which the urothelium is damaged after the removal of cancer tissues, the catheter tip was inserted completely and five circular motions were made in the apical part of the bladder. A 1 mL syringe with 100 μL of a CGKRK peptide (SEQ ID NO:1) solution (0.3 mg/mL in 80% PBS/20% DMSO) was attached to the catheter, and approximately 50 μL of the solution was injected into the bladder until the bladder was completely distended, as determined by abdominal palpitation. The catheter with attached syringe was left in the bladder for 15 minutes. After incubation, the peptide was removed via negative pressure, and the bladder was washed 5 times with PBS, with complete filling of the bladder each time. A Dino-Lite AM4113T-GRFBY camera equipped with 480- and 570-nm excitation filters and 510- and 610-nm long pass emission filters was used to take images of the bladder in situ. The abdominal cavity was opened by incision, and the bladder was imaged at 20 to 40 times magnification. The images were acquired at 1280×1024 resolution.
Freshly removed bladders were washed in PBS and snap frozen in liquid nitrogen. The tissue was embedded in optical cutting temperature (OCT) media and cryosectioned in consecutive 7-μm steps so that alternating sections were mounted on slides for fluorescence imaging and hematoxylin-eosin (H&E) staining, respectively. The tissues on each slide were fixed in a 10% buffered formalin solution, mounted with Vectashield™ antifade mounting medium with DAPI (for fluorescence imaging) or Permount™ medium (for H&E staining), and covered with a coverslip. The bladders imaged with a Nikon E600 upright fluorescence microscope with a SPOT RT color camera. The images in each fluorescence channel were acquired under saturation as 12-bit gray TIFF files, and H&E images were acquired as RGB images. Each low-magnification image covering the entire bladder area was analyzed with ImageJ software. The background was subtracted, and the integrated gray density per image was calculated. The intensities were plotted as individual values using Prism software.
Referring now to FIGS. 6A and 6B, the effect of mechanical injury on accumulation of peptides in the bladder is illustrated. Mice were treated by washing the bladder and inducing injury to the mucosal surface of the bladder; the peptide was then injected into the bladder and incubated 15 minutes; the bladder was then washed 5 times. […] The arrows in FIGS. 6A and 6B indicate the apical region of the bladder.
An investigation of the mechanisms of injury-induced accumulation of CGKRK (SEQ ID NO:1) was conducted. CGKRK (SEQ ID NO:1) was mixed with EDTA-treated blood and administered intravesically. […] Mice were pretreated with the anti-inflammatory agent dexamethasone prior to injury.

Row | Substance | Cellular uptake, accumulation in the cytoplasm (confocal images) [1] | Peptide uptake quantified by fluorescence spectroscopy ([1]; FIG. 5A, versus KAREC) | Kinetics of binding to heparin (curve fit) [2] | Binding to heparin ([2]; versus KAREC) | Kinetics of binding to collagen (curve fit) (collagen type I) | Binding to collagen type I (collagen type I; versus KAREC) | Accumulation after chemical disruption of the urothelium barrier with ethanol (bladder urothelium; 2× and 20× magnification) | Binding in the bladder, in situ images (bladder urothelium; absence of focal injury) | Binding in the bladder, in situ images (bladder urothelium; after mechanical injury) | Histological analysis of binding, entire bladder (bladder urothelium; injured bladder, FIG. 7) | Histological analysis of binding, tissue layers (bladder urothelium; injured bladder, 20× magnification, FIG. 7) | Injury-induced binding after dexamethasone pretreatment (bladder urothelium; mice pretreated with dexamethasone prior to injury) | Binding when mixed with EDTA-treated blood (bladder urothelium; no injury, intravesical)
1 | CGKRK (also: fluorescent label) [cell-penetrating pentapeptide, fluorescently labelled in the tests] | significant accumulation | significantly more accumulation | linear kinetics for other binding | more efficient binding to both heparin and collagen type I | saturation kinetics | more efficient binding to both heparin and collagen type I | widespread accumulation | no binding | efficient binding after injury | widespread binding | accumulation of the peptide in the urothelium (U) and some penetration into the muscle layer (ML) | did not block injury-induced binding | Blood did not induce binding in the absence of injury
2 | KAREC [comparison peptide tested beside CGKRK, reference compound] |  |  | linear kinetics for other binding |  | linear kinetics for other binding |  |  |  | limited binding at the injury site | less efficient and less widespread accumulation |  |  | 

— patent publication US11642319B2, “Targeted nanogels for urinary bladder therapies” (THE REGENTS OF THE UNIVERSITY OF COLORADO, priority 2017, dated 2023)
